How the values were obtained:
[1] = molecular target: T1, Aβ42 aggregation (Homo sapiens, UniProt P05067); test: Thioflavin S assay of Aβ42 aggregation in E. coli cells overexpressing Aβ42; type: cell-based, Escherichia coli; conditions: read-out: Aβ42 inhibition %
T1 construct: expressed in transfected cells; host or cells: E. coli BL21 (DE3), pET vector
Procedure: The antiaggregating profiles of both series A and B were evaluated using a fluorescence Thioflavin S (ThS) assay in cellulo, which monitors ThS fluorescence in the presence of β-sheet-rich structures, such as Aβ and tau protein aggregates. This method, based on recombinant Escherichia coli (E. coli) bacteria overexpressing insoluble aggregates, offers a simple and cost-effective approach to model aggregation processes in mammalian systems and has been validated for use in drug discovery studies. , Compounds were tested at a screening concentration of 50 μM for their ability to inhibit Aβ42 aggregation. The results, summarized in Table , reveal distinct antiaggregating profiles between series A and B, which are once again influenced by their structural differences.
42 Amino acid Aβ42 was cloned and overexpressed in E. coli BL21 (DE3) competent cells using the pET vector harboring the DNA sequence of Aβ42. Due to the addition of the initiation codon ATG preceding genes, the resulting overexpressed peptide contained an additional methionine residue at its N-terminus. For the preparation of overnight cultures, a colony of BL21 (DE3) cells carrying the plasmid for expression was inoculated in 10 mL of M9 minimal medium supplemented with 50 μg mL^–1 kanamycin at 37 °C. Subsequently, a 1:500 dilution of the overnight culture was added to fresh M9 minimal medium containing 50 μg mL^–1 kanamycin and 25 μM ThS. The bacterial culture was then incubated at 37 °C with agitation at 250 rpm. Upon reaching an OD600 of 0.6, 980 μL of the culture was transferred into 1.5 mL Eppendorf tubes, each containing 10 μL of the compound to be tested dissolved in DMSO and 10 μL of 100 mM isopropyl 1-thio-β-D-galactopyranoside (IPTG) or, alternatively, 10 μL of water for the noninduced controls. The final compound concentration was adjusted to […]. The samples were allowed to grow overnight at 37 °C with agitation at 1400 rpm using a Thermomixer (Eppendorf). Negative controls, representing maximum amyloid presence, utilized free DMSO.
ThS (T1892) and all other chemical reagents were purchased from Sigma (St. Louis, MO). Stock solutions of ThS (250 μM) were prepared using doubly distilled water purified via a Milli-Q system (Millipore). For the fluorescence assay, ThS spectra were recorded utilizing an AmincoBowman series 2 luminescence spectrophotometer (Aminco-Bowman AB2, SLM Aminco, Rochester, NY) within the range of 460 to 600 nm at a temperature of 25 °C. The excitation wavelength employed was 445 nm, with slit widths set at 4 nm. The emission at 485 nm, corresponding to the ThS peak observed in the presence of amyloids, was recorded. To standardize ThS fluorescence relative to bacterial concentration in both in vitro and cell-based assays, the OD600 was determined using a Shimadzu UV-2401 PC UV–vis spectrophotometer. Fluorescence normalization was executed by setting the ThS fluorescence of bacterial cells expressing the peptide or protein in the absence of the drug as 100%, while that of bacterial cells not expressing the peptide or protein was established as 0%.

[2] = molecular target: eeAChE (Electrophorus electricus AChE) (Electrophorus electricus, UniProt O42275); test: Cholinesterase inhibition assay (modified Ellman's method), eeAChE; type: biochemical; conditions: mean ± SEM, n = 3; n.a = nonactive; IC50 determined only if inhibition higher than 50% at 20 μM
Source text: Compound series A and B were initially screened for their cholinesterase activity against eeAChE (Electrophorus electricus AChE) and eqBChE (equine serum butyrylcholinesterase), using an adaptation of the Ellman’s method. […]. […] Similarly, replacing the terminal triple bond in 7l with a nitrile group reduced its activity, while replacing the O-propargyl group with an N,N-dipropargyl group in 10 enhanced the inhibition of both enzymes, particularly BChE (Table ). The installation of an additional aryl ring in 7o further improved AChE inhibition, slightly increasing selectivity toward this enzyme. […]. […]. […]. The inhibitory activity of the synthesized compounds toward eeAChE and eqBChE was evaluated spectrophotometrically through a 96-well microplate modified Ellman’s method. The solutions of both enzymes were prepared as 0.025 U/mL in phosphate buffer at pH 7, from stock solutions of 5.05 U/mL and 7.50 U/mL, respectively. The stock solutions for the target compounds (0.1 M) were prepared in dimethyl sulfoxide (DMSO). […] The reaction mixture was prepared with 100 μL of the enzyme (eeAChE or eqBChE) and 50 μL of the test compound (or DMSO/water, not exceeding 0.2% of DMSO in the wells; i.e blank samples). After 5 min of the preincubation period at 37 °C, 50 μL of ATChI or BTChI and 50 μL of DTNB were added to each well, thus initiating the enzymatic reaction. The absorbance values were measured at 415 nm, for a total of 7.5 min, at every 2.5 min, using a microplate reader (Synergy multimode reader; BioTek). […]. All experiments were performed in triplicate.

eeAChE (Electrophorus electricus AChE), sequence (O42275 24-633): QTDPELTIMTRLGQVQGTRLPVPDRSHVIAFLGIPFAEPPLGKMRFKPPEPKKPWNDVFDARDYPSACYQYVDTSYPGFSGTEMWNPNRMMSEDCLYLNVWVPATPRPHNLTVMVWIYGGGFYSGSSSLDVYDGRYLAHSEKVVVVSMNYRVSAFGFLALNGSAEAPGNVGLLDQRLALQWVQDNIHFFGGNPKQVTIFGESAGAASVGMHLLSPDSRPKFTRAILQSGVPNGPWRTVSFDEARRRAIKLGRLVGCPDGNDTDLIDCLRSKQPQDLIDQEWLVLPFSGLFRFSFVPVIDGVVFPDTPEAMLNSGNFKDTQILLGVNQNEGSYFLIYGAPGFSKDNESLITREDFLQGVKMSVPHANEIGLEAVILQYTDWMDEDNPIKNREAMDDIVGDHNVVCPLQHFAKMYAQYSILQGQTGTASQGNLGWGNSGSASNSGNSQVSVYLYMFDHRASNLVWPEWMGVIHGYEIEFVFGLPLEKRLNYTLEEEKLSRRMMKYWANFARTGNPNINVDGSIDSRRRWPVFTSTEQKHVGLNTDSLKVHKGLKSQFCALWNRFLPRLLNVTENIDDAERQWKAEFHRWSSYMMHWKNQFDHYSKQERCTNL
T1 sequence (P05067 672-713): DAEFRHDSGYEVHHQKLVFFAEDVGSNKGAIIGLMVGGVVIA

SMILES | inhibition at 50 µM [1] [%] | IC50 [2] [nM]
C#CCOc1c(Br)cc(Cl)cc1/C=C/c1cc(=O)c2ccc(OC)cc2o1 [Compound 7w, (E)-2-[3-Bromo-5-chloro-2-(prop-2-yn-1-yloxy)styryl]-7-methoxy-4H-chromen-4-one] | 35 ± 3 | 
C#CCOc1ccc(Br)cc1/C=C/c1cc(=O)c2ccccc2o1 [Compound 7g, (E)-2-[5-Bromo-2-(prop-2-yn-1-yloxy)styryl]-4H-chromen-4-one] | 25 ± 4.6 | 
COc1ccc2c(=O)c3cc4c(cc3oc2c1)-c1cc(OC(F)(F)F)ccc1OC4 [Compound 11p, 11-Methoxy-2-(trifluoromethoxy)-6H,8H-chromeno[3,4-b]xanthen-8-one] | 29 ± 7.6 | 
O=c1cc(/C=C/c2ccccc2OCC#Cc2ccccc2)oc2ccccc12 [Compound 7m, (E)-2-{2-[(3-Phenylprop-2-yn-1-yl)oxy]styryl}-4H-chromen-4-one] | 28 ± 3.8 | 
C#CCOc1ccc(OC(F)(F)F)cc1/C=C/c1cc(=O)c2ccccc2o1 [Compound 7h, (E)-2-[2-(Prop-2-yn-1-yloxy)-5-(trifluoromethoxy)styryl]-4H-chromen-4-one] | 11 ± 2 | 
C#CCOc1ccc(F)cc1/C=C/c1cc(=O)c2ccc(OC)cc2o1 [Compound 7u, (E)-2-[5-Fluoro-2-(prop-2-yn-1-yloxy)styryl]-7-methoxy-4H-chromen-4-one] | 28 ± 3.5 | 
C#CCOc1ccccc1/C=C/c1cc(=O)c2c(OC)cccc2o1 [Compound 7c, (E)-5-Methoxy-2-[2-(prop-2-yn-1-yloxy)styryl]-4H-chromen-4-one] | 33 ± 2.2 | 
N#CCOc1ccccc1/C=C/c1cc(=O)c2ccccc2o1 [Compound 7l, (E)-2-{2-[2-(4-oxo-4H-chromen-2-yl)vinyl]phenoxy}acetonitrile] | 34 ± 5.2 | 
C#CCOc1ccccc1/C=C/c1cc(=O)c2c(OC)cc(OC)cc2o1 [Compound 7e, (E)-5,7-Dimethoxy-2-[2-(prop-2-yn-1-yloxy)styryl]-4H-chromen-4-one] | 24 ± 1.7 | 
O=c1c2ccccc2oc2cc3c(cc12)COc1ccc2ccccc2c1-3 [Compound 12a] | 43 ± 3.9 | 
O=c1c2ccccc2oc2cc3c(cc12)COc1ccccc1-3 [Compound 11a, 6H,8H-Chromeno[3,4-b]xanthen-8-one] | 15 ± 4.6 | 2100 ± 200
C#CCOc1ccccc1/C=C/c1cc(=O)c2ccccc2o1 [Compound 7a, (E)-2-[2-(Prop-2-yn-1-yloxy)styryl]-4H-chromen-4-one] | 38 ± 6.2 | 9500 ± 300
C#CCOc1ccc(OC)cc1/C=C/c1cc(=O)c2ccccc2o1 [Compound 7f, (E)-2-[5-Methoxy-2-(prop-2-yn-1-yloxy)styryl]-4H-chromen-4-one] | 15 ± 2.7 | 
COc1ccc(C#CCOc2ccccc2/C=C/c2cc(=O)c3ccccc3o2)cc1 [Compound 7n, (E)-2-(2-{[3-(4-Methoxyphenyl)prop-2-yn-1-yl]oxy}styryl)-4H-chromen-4-one] | 34 ± 3.3 | 
COc1ccc2c(=O)c3cc4c(cc3oc2c1)-c1ccccc1OC4 [Compound 11b, 11-Methoxy-6H,8H-chromeno[3,4-b]xanthen-8-one] | 22 ± 2.7 | 3900 ± 900
C#CCOc1c(Br)cc(Cl)cc1/C=C/c1cc(=O)c2ccccc2o1 [Compound 7k, (E)-2-[3-Bromo-5-chloro-2-(prop-2-yn-1-yloxy)styryl]-4H-chromen-4-one] | 24 ± 3 | 
C#CCOc1ccc2ccccc2c1/C=C/c1cc(=O)c2ccc(OC)cc2o1 [Compound 8b] | 32 ± 4.3 | 

SMILES | inhibition at 50 µM [1] [%] | IC50 [2] [nM]
COc1cccc2oc3cc4c(cc3c(=O)c12)COc1ccccc1-4 [Compound 11c, 9-Methoxy-6H,8H-chromeno[3,4-b]xanthen-8-one] | 34 ± 4.4 | 
C#CCOc1ccc(OC)cc1/C=C/c1cc(=O)c2ccc(OC)c(OC)c2o1 [Compound 7r] | 40 ± 5.6 | 
C#CCOc1ccccc1/C=C/c1cc(=O)c2ccc(OC)c(OC)c2o1 [Compound 7d, (E)-7,8-Dimethoxy-2-[2-(prop-2-yn-1-yloxy)styryl]-4H-chromen-4-one] | 28 ± 1.7 | 2400 ± 400
C#CCOc1ccc2ccccc2c1/C=C/c1cc(=O)c2ccccc2o1 [Compound 8a] | 47 ± 3.9 | 
C#CCOc1ccc(OC(F)(F)F)cc1/C=C/c1cc(=O)c2ccc(OC)cc2o1 [Compound 7t, (E)-7-Methoxy-2-[2-(prop-2-yn-1-yloxy)-5-(trifluoromethoxy)styryl]-4H-chromen-4-one] | 20 ± 2.3 | 
C#CCOc1ccc(F)cc1/C=C/c1cc(=O)c2ccccc2o1 [Compound 7i, (E)-2-[5-Fluoro-2-(prop-2-yn-1-yloxy)styryl]-4H-chromen-4-one] | 22 ± 4.8 | 
Cc1ccc(C#CCOc2ccccc2/C=C/c2cc(=O)c3ccccc3o2)cc1 [Compound 7o, (E)-2-(2-{[3-(4-methylphenyl)prop-2-yn-1-yl]oxy}styryl)-4H-chromen-4-one] | 37 ± 2 | 2900 ± 500
C#CCOc1ccc(Cl)cc1/C=C/c1cc(=O)c2ccccc2o1 [Compound 7j, (E)-2-[5-Chloro-2-(prop-2-yn-1-yloxy)styryl]-4H-chromen-4-one] | 11 ± 2.3 | 
O=c1c2ccccc2oc2cc3c(cc12)COc1ccc(Br)cc1-3 [Compound 11g, 2-Bromo-6H,8H-chromeno[3,4-b]xanthen-8-one] | 36 ± 4.8 | 
C#CCOc1ccc(OC)cc1/C=C/c1cc(=O)c2ccc(OC)cc2o1 [Compound 7p, (E)-7-Methoxy-2-[5-methoxy-2-(prop-2-yn-1-yloxy)styryl]-4H-chromen-4-one] | 11 ± 1.5 | 
COc1ccc2c(c1)-c1cc3oc4cc(OC)cc(OC)c4c(=O)c3cc1CO2 [Compound 11o, 2,9,11-Trimethoxy-6H,8H-chromeno[3,4-b]xanthen-8-one] | 33 ± 4.3 | 
C#CCOc1ccc(Cl)cc1/C=C/c1cc(=O)c2ccc(OC)cc2o1 [Compound 7v, (E)-2-[5-Chloro-2-(prop-2-yn-1-yloxy)styryl]-7-methoxy-4H-chromen-4-one] | 17 ± 2 | 
C#CCOc1ccc(OC)cc1/C=C/c1cc(=O)c2c(OC)cc(OC)cc2o1 [Compound 7s, (E)-5,7-Dimethoxy-2-[5-methoxy-2-(prop-2-yn-1-yloxy)styryl]-4H-chromen-4-one] | 50 ± 1.6 | 
O=c1c2ccccc2oc2cc3c(cc12)COc1ccc(Cl)cc1-3 [Compound 11j, 2-Chloro-6H,8H-chromeno[3,4-b]xanthen-8-one] | 45 ± 7.4 | 
C#CCOc1ccccc1/C=C/c1cc(=O)c2ccc(OC)cc2o1 [Compound 7b, (E)-7-Methoxy-2-[2-(prop-2-yn-1-yloxy)styryl]-4H-chromen-4-one] | 23 ± 1.8 | 
COc1ccc2c(c1)-c1cc3oc4c(OC)c(OC)ccc4c(=O)c3cc1CO2 [Compound 11n, 2,11,12-Trimethoxy-6H,8H-chromeno[3,4-b]xanthen-8-one] | 34 ± 4 | 

Source: paper PMC12818745 (ACS Chemical Neuroscience, 2025)
